Measurements as given in patent US10351536B2, “Crystalline forms of lesinurad and its sodium salt” (CRYSTAL PHARMATECH CO., LTD., priority 2013, dated 2019).
Where a name gives a salt, the structure may show the parent alone.

What was measured:
[1] = Inter-conversion of Form A and Form α of lesinurad sodium salt by stirring in water (XRPD); format: physicochemical
[2] = Stability assessment of Form III under stress conditions (XRPD); format: physicochemical; conditions: 14 days; for Final form: dish open, XRPD
Method: (§1) Analytical Instrument: Panalytical Empyrean. The X-ray powder diffractogram was determined by mounting a sample of the crystalline material on a Si single crystal low-background holder and spreading out the sample into a thin layer with the aid of a microscope slide. The 2θ position was calibrated against Panalytical 640 Si powder standard. The sample irradiated with X-rays generated by a copper long-fine focus tube operated at 45 kV and 40 mA with a wavelength of Kα1=1.540589 angstroms and Kα2=1.544426 angstroms (Kα1/Kα2 intensity ratio is 0.50). The collimated X-ray source was passed through a programmed divergence slit set at 10 mm and the reflected radiation directed through a 5.5 mm anti-scattering slit. The sample was exposed for 16.3 seconds per 0.013° 2-theta increment (continuous scan mode) over the range 3 degrees to 40 degrees 2-theta in theta-theta mode. The running time was 3 minutes and 57 seconds. The instrument was equipped with an RTMS detector (X'Celerator). Control and data capture was accomplished by means of a Dell Optiplex 780 XP operating with data collector software.
Two samples of lesinurad Form III were stored under 25° C./60% RH and 40° C./75% RH, respectively, with dish open for 14 days. The solid samples were analyzed by XRPD.

[3] = Hygroscopicity assessment by dynamic vapor sorption (DVS); format: physicochemical; conditions: 25° C.
Method: Dynamic Vapor Sorption (DVS) was measured via a SMS (Surface Measurement Systems) DVS Intrinsic. The relative humidity at 25° C. were calibrated against deliquescence point of LiCl, Mg(NO3)2 and KCl. Typical Parameters for DVS test are listed below.
Hygroscopicity of lesinurad Form III was investigated using dynamic vapor sorption (DVS).
Hygroscopicity criteria applied in this example refer to the standard in European pharmacopoeia: • deliquescent: sufficient water is absorbed to form a liquid, • very hygroscopic: increase in mass is equal to or greater than 15 percent, • hygroscopic: increase in mass is less than 15 percent and equal to or greater than 2 percent, • slightly hygroscopic: increase in mass is less than 2 percent and equal to or greater than 0.2 percent.

[4] = Stability assessment of lesinurad sodium salt Form β on storage (XRPD); format: physicochemical; conditions: room temperature, 12 months
Method: as §1
A sample of the lesinurad sodium salt Form β was stored under room temperature for 12 months. The solid sample was analyzed by XRPD.

[5] = system: gout patients; conditions: Phase III, gout patients without benefit from allopurinol and febuxostat, lesinurad alone; cited from earlier work

Compound: O=C(O)CSc1nnc(Br)n1-c1ccc(C2CC2)c2ccccc12 [Form A, lesinurad sodium salt, reference compound]
- Form conversion after stirring in water ([1]; water, 500 rpm, 24 hours, ambient conditions, XRPD): converts to Form α

Compound: O=C(O)CSc1nnc(Br)n1-c1ccc(C2CC2)c2ccccc12 [Form III, 2-((5-bromo-4-(4-cyclopropylnaphthalen-1-yl)-4H-1,2,4-triazol-3-yl)thio)acetic acid]
- Stability under the stress conditions ([2]; 25° C./60% RH and 40° C./75% RH): stable under the stress conditions
- Final form ([2]; 25° C./60% RH): Form III
- Final form ([2]; 40° C./75% RH): Form III
- Water uptake under 80% RH ([3]; 80% RH): 0.8%
- Water uptake under 95% RH ([3]; 95% RH): 2.4%
- Hygroscopicity (European pharmacopoeia criteria) ([3]; 80% RH): slightly hygroscopic (increase in mass is less than 2 percent and equal to or greater than 0.2 percent)

Compound: O=C(O)CSc1nnc(Br)n1-c1ccc(C2CC2)c2ccccc12 [Form α, lesinurad sodium salt]
- Relative stability in water ([1]; in water under ambient conditions): more stable in comparison to Form A

Compound: O=C(O)CSc1nnc(Br)n1-c1ccc(C2CC2)c2ccccc12 [Form β, lesinurad sodium salt]
- Stability under the stress conditions [4]: stable under the stress conditions
- Final form ([4]; XRPD): salt Form β

Compound: O=C(O)CSc1nnc(Br)n1-c1ccc(C2CC2)c2ccccc12 [lesinurad, 2-((5-bromo-4-(4-cyclopropylnaphthalen-1-yl)-4H-1,2,4-triazol-3-yl)thio)acetic acid]
- Serum levels of uric acid [5]: significantly reduced serum levels of uric acid
